The values below come from patent EP2842965A1, “Neuromedin U analogs comprising serum albumin binding amino acid residue” (Gubra ApS, priority 2013, dated 2015).

The assay deals with T1, Neuromedin U receptor 1 (NMUR1) (Homo sapiens, UniProt Q9HB89).
T1 construct: expressed in transfected cells; host or cells: HEK293 cells, transient calcium phosphate transfection
T1 sequence (Q9HB89 1-426): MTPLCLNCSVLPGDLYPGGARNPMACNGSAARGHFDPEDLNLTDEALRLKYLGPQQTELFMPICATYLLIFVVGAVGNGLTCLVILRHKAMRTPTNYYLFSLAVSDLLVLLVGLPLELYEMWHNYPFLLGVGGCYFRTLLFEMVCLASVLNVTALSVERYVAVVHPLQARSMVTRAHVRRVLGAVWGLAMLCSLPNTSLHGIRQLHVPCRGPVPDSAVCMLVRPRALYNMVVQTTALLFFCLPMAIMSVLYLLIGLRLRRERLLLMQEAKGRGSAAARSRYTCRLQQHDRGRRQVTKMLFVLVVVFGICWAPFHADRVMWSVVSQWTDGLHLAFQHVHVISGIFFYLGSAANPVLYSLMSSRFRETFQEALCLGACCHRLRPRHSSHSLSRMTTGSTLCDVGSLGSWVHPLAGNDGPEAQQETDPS
Nature of the assay: Functional assay (IP3 SPA-ysi assay) in HEK293 cells transfected with NMUR1. The format is cell-based. The following applies: HEK293 cells transiently transfected with NMUR1; head says cAMP, method describes IP3 SPA readout. How it is done:
All compounds were dissolved in dimethyl sulfoxide (DMSO), and then water was added (total DMSO conc. was 80%). The stock concentration was 1 mM for all the compounds. Stocks were alliquoted and frozen -20°C.
The day before each assay a new standard row was prepared by dilution of the stock solution in assay buffer (1 mM acetic acid + 0.1% bovine serum albumin (BSA)). The following concentrations were prepared (depending on the ligand potency): 10^-5, 10^-6, 10^-7, 10^-7.5, 10^-8, 10^-8.5, 10^-9, 10^-10, 10^-11, 10^-12 M.
Cell cultures: The HEK293 cells are grown in (DMEM31966 glutamax supplemented with 10% FBS (fetal bovine serum) and 1% penicillin G and streptomycin) and incubated at 37°C with 10% CO2 in a humidified atmosphere. The cells were split as follows. HEK293 cells approximately 80% confluent was used. The cells were removed from the bottom of the bottle by removing the media (DMEM31966 glutamax supplemented with 10% FBS and 1% penicillin G and streptomycin), rinsed with 5 mL phosphate buffered saline (PBS) and shaken gently. […]
IP3 SPA-ysi assay: The media was removed and the plates were washed with 200 µL of Hank's balanced salt solution (HBSS) (Gibco, Life Technologies). […] The plates were sealed and shaken on high speed for 30 min, then centrifuged for 5 min at 1500 rpm and counted with 8 hours delay in the top counter. […]

The structures appear in SMILES notation. Starred links: 1 amine or outer side, 2 acyl side, 3 side chain; linkers in the order of their positions; H or OH if unused. Residues, ends and D or L forms follow the SMILES beside them. Groups on a side chain read outwards from the residue. *: point of attachment. γGlu = O=C(O)[C@H](CCC(=O)[*:2])N[*:1]; Palmitoyl = CCCCCCCCCCCCCCCC(=O)*

The EC50 is the concentration that produces a half-maximal response. A low value points to higher potency in that assay. The compound `CCCCCCCCCCCCCCCC(=O)N[C@@H](CCC(=O)NCCCC[C@H](NC(=O)[C@H](CCC(=O)O)NC(=O)[C@H](CC(=O)O)NC(=O)[C@@H](NC(=O)[C@H](CCCNC(=N)N)NC(=O)[C@@H](N)Cc1ccccc1)C(C)C)C(=O)N[C@@H](Cc1ccccc1)C(=O)N[C@@H](CCC(N)=O)C(=O)N[C@@H](CO)C(=O)N1CCC[C@H]1C(=O)N[C@@H](Cc1ccccc1)C(=O)N[C@@H](C)C(=O)N[C@@H](CO)C(=O)N[C@@H](CCC(N)=O)C(=O)N[C@@H](CO)C(=O)N[C@@H](CCCNC(=N)N)C(=O)NCC(=O)N[C@@H](Cc1ccc(O)cc1)C(=O)N[C@@H](Cc1ccccc1)C(=O)N[C@@H](CC(C)C)C(=O)N[C@@H](Cc1ccccc1)C(=O)N[C@@H](CCCNC(=N)N)C(=O)N1CCC[C@H]1C(=O)N[C@@H](CCCNC(=N)N)C(=O)N[C@@H](CC(N)=O)C(N)=O)C(=O)O` [SEQ ID NO 14] (H-FRVDEK([γGlu-Palmitoyl])FQSPFASQSRGYFLFRPRN-NH2) gave a 50% effective concentration (EC50) of 51.4 nM.
